We go through 15 compounds from US8871753B2, “Macrocyclic compounds and their use as kinase inhibitors” (Incyte Corporation, priority 2008, dated 2014).

As usually defined, the IC50 is the concentration that inhibits the measured activity by half.

The structures appear in SMILES notation. Structures can show the parent of a compound that is named as a salt. Where two headings read alike, the source gives them in different places.

Holding throughout (assay type): biochemical
Assay [1] deals with T1, Recombinant Human Anaplastic Lymphoma Kinase (Homo sapiens, UniProt Q9UM73).
T1 construct: purchased Invitrogen, Carlsbad, Calif
T1 sequence (Q9UM73 19-1620): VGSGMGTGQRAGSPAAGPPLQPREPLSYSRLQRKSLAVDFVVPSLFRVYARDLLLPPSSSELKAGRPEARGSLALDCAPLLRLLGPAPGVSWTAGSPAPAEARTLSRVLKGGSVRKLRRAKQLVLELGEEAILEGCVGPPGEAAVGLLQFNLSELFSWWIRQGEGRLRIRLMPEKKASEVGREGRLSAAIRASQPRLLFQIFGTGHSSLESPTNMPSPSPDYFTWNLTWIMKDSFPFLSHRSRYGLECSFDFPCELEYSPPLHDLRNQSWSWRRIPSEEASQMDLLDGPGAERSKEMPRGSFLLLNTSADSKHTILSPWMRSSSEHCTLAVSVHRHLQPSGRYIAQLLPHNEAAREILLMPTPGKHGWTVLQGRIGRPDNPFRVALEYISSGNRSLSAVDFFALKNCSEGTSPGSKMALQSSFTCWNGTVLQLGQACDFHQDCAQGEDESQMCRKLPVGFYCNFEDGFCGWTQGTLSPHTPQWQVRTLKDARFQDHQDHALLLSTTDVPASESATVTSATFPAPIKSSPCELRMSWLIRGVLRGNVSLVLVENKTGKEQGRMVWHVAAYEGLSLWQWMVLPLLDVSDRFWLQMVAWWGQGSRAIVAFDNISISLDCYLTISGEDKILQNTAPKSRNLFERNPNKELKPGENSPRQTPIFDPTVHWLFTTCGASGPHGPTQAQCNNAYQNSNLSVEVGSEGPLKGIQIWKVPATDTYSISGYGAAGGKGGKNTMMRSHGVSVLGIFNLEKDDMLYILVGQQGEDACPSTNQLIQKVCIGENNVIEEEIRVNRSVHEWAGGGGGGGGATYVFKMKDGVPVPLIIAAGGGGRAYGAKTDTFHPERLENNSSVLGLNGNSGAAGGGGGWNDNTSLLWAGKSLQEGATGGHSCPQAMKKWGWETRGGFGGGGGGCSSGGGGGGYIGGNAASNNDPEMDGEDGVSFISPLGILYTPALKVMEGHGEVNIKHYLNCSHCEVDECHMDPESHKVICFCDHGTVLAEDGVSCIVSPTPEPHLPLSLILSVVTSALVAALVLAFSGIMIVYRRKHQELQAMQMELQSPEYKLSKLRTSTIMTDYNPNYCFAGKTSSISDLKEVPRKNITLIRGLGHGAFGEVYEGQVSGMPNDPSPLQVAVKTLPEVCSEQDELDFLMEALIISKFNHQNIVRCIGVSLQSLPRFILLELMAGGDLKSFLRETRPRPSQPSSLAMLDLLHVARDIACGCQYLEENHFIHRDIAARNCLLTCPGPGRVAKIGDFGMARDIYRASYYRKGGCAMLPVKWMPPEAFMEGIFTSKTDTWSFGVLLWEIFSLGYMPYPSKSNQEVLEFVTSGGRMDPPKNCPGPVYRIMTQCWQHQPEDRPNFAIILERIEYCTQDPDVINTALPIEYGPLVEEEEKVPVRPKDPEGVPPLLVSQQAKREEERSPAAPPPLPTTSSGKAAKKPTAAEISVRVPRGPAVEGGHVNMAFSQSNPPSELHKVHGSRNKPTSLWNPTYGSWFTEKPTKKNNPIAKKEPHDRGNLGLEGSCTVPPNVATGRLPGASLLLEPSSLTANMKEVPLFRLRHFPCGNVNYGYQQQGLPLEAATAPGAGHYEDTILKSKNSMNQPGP
Kind of assay: ALK HTRF kinase assay. In outline:
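Compounds were incubated with recombinant human ALK and a biotin-tagged peptide substrate. Product was captured with streptavidin-APC and probed with a europium anti-phosphotyrosine antibody, and plates were read for time-resolved fluorescence. Dose-response data were fitted to derive IC50.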
(In general: TR-FRET usually uses a lanthanide donor and a delayed reading to cut background.)

For assay [2], the target named is T2, human JAK3 (a.a. 781-1124) (Homo sapiens, UniProt P52333).
T2 construct: JAK3 (a.a. 781-1124); His tag (N); made in house; host or cells: insect cells (baculovirus)
T2 sequence (P52333 781-1124): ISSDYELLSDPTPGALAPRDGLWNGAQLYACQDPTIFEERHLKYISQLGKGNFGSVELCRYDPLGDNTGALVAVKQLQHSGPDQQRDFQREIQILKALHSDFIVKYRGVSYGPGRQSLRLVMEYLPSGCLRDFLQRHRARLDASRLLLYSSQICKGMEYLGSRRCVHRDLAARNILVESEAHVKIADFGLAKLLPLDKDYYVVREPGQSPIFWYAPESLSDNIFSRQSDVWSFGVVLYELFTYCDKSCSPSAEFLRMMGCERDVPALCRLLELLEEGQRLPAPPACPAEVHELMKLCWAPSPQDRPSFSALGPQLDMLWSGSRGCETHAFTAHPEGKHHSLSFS
As to the kind of experiment: In vitro JAK kinase assay (HTRF, phosphorylation of a biotinylated peptide), JAK3. The essentials: (§1)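 Phosphorylation of a biotinylated peptide by the JAK kinase domain, detected by HTRF with Eu-Py20 and SA-APC. ATP was 90 μM for JAK1, 30 μM for JAK2 and 3 μM for JAK3. Reactions ran 1 h at room temperature and were stopped with EDTA, followed by 40 min antibody binding.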

Assay [3] has as its target T3, human JAK2 (a.a. 828-1132) (Homo sapiens, UniProt O60674).
T3 construct: JAK2 (a.a. 828-1132); His tag (N); made in house; host or cells: insect cells (baculovirus)
Kind of assay: In vitro JAK kinase assay (HTRF, phosphorylation of a biotinylated peptide), JAK2. The essentials:
as §1

The target in assay [4] is TYK2 (Homo sapiens, UniProt P29597). Kind of assay: TYK2 kinase inhibition (Table A1).
Chain of TYK2 (P29597 whole entry): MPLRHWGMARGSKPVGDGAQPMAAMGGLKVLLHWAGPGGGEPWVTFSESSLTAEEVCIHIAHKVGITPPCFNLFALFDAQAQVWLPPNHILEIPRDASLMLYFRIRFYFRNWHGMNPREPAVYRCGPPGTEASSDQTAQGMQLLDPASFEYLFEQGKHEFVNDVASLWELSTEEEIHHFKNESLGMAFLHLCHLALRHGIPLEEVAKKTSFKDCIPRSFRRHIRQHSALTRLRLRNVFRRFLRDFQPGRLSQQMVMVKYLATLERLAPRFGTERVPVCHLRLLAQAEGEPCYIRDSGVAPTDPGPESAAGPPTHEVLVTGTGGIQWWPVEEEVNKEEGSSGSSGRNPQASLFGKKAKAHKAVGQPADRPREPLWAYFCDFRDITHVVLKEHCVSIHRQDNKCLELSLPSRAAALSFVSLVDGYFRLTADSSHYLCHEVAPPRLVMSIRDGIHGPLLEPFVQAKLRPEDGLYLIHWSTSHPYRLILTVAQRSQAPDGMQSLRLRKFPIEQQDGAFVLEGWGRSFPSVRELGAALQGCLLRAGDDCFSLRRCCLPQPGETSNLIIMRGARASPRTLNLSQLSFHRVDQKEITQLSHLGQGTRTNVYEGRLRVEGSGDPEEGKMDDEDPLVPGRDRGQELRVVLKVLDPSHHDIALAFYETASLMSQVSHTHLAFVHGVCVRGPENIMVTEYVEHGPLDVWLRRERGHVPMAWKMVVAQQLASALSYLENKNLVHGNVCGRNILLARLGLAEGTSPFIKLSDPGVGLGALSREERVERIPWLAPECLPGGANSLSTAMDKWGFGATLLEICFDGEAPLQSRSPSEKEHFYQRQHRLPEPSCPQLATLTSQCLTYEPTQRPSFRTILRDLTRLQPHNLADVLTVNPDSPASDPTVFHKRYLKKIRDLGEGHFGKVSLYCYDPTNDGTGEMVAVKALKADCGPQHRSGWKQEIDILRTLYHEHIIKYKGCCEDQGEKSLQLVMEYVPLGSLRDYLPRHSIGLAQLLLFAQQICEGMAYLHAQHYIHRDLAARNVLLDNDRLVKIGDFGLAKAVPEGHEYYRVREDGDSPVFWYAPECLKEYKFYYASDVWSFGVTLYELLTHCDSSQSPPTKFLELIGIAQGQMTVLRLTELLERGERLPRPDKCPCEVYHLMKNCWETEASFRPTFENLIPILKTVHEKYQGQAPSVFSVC
Assay [5] addresses T4, human JAK1 (a.a. 837-1142) (Homo sapiens, UniProt P23458).
T4 construct: human JAK1 (a.a. 837-1142); His tag (N); made in house; host or cells: insect cells (baculovirus)
As to the kind of experiment: In vitro JAK kinase assay (HTRF, phosphorylation of a biotinylated peptide), JAK1. Particulars: read-out: JAK1 IC50. The essentials:
as §1

Setting [6] is: compound at 500 nM or 1 mM, 90 μM ATP.
Where [7] appears, read: method AA1 (3 μM ATP) or AA2 (1000 μM ATP), not stated per value.
[8] abbreviates: method AA1 (30 μM ATP) or AA2 (1000 μM ATP), not stated per value.
Setting [9] is: method AA1 (90 μM ATP) or AA2 (1000 μM ATP), not stated per value.
The mark [10] stands for this setting: percentage inhibition of the example compound at a concentration of 500 nM or 1 mM (not specified which).
[11] abbreviates: compound at a concentration of 500 nM or 1 mM (not specified), cells shown as percentage.
Setting [12] is: Table B1, cells without percent sign.

T4 sequence (P23458 849-1154): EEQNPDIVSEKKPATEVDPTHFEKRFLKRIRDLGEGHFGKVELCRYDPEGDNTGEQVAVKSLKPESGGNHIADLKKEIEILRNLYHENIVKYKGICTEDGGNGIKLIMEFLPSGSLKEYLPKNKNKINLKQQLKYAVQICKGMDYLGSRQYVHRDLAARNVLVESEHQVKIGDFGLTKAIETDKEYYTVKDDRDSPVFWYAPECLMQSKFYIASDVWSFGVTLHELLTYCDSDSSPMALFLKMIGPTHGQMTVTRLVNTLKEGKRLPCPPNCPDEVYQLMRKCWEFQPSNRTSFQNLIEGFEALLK
T3 sequence (O60674 828-1132): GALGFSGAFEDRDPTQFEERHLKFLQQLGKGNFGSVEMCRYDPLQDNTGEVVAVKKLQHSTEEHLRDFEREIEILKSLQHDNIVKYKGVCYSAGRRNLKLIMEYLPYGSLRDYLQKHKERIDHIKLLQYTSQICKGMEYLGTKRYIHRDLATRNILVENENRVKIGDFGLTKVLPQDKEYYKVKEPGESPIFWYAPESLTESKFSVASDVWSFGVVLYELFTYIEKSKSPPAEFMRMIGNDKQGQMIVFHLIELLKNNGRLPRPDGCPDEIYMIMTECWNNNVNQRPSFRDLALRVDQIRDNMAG

As to `O=C(COc1ccc2cc1CCc1cncc(c1)Nc1ncc(Cl)c(n1)N2)N1CCn2c(nnc2C(F)(F)F)C1` [Example A249, 6-Chloro-12-{2-oxo-2-[3-(trifluoromethyl)-5,6-dihydro[1,2,4]triazolo[4,3-a]pyrazin-7(8H)-yl]ethoxy}-2,4,8,18,22pentaazatetracyclo[14.3.1.1(3,7).1(9,13)]docosa1(20),3(22),4,6,9(21),10,12,16,18-nonaene bis(trifluoroacetate)], in assay [1] (setting [6]), the “ALK % of inhibition at a concentration of 500 nM or 1 mM” value (“ALK % of inhibition” below) was found to be 28%. Also, the IC50 was greater than 400 nM in assay [2] (setting [7]), greater than 400 nM in assay [3] (setting [8]), greater than 400 nM in assay [4] and 226 nM in assay [5] (setting [9]).

For `O=C(Nc1ccc2cc1CCc1cncc(c1)Nc1ncc(Cl)c(n1)N2)N1CCN2CCCC2C1` (stereo not drawn) [Example B315, N-[6-Chloro-2,4,8,18,22-pentaazatetracyclo[14.3.1.1(3,7).1(9,13)]docosa-1(20),3(22),4,6,9(21),10,12,16,18-nonaen-12-yl]hexahydropyrrolo[1,2-a]pyrazine-2(1H)-carboxamide tris(trifluoroacetate)], the “ALK % of inhibition” value in assay [1] (setting [10]) is listed as 50%. The IC50 is greater than 400 nM in assay [2] (Table B1), greater than 400 nM in assay [3] (Table B1), 235 nM in assay [4] (Table B1) and 47 nM in assay [5] (Table B1).

`O=C(Nc1ccc2cc1CCc1cccc(c1)Nc1ncc(Cl)c(n1)N2)c1cccnc1Cl` [Example B70, 2-Chloro-N-[6-chloro-2,4,8,22-tetraazatetracyclo[14.3.1.1(3,7).1(9,13)]docosa-1(20),3(22),4,6,9(21),10,12,16,18-nonaen-12-yl]nicotinamide bis(trifluoroacetate)]: the “ALK % of inhibition” value in assay [1] (setting [11]) came out at 82%. The IC50 came out at 2.4 nM in assay [2] (Table B1), 0.64 nM in assay [3] (Table B1), 2.5 nM in assay [4] (Table B1) and 1.5 nM in assay [5] (Table B1).

For `O=C(Nc1ccc2cc1CCc1cccc(c1)Nc1ncc(Cl)c(n1)N2)c1ccc2occc2c1` [Example B79, N-[6-Chloro-2,4,8,22-tetraazatetracyclo[14.3.1.1(3,7).1(9,13)]docosa-1(20), 3(22),4,6,9(21),10,12,16,18-nonaen-12-yl]-1-benzofuran-5-carboxamide trifluoroacetate], in assay [1] (setting [11]), the “ALK % of inhibition” value came out at 91%. Besides, the IC50 in assay [2] (Table B1) came to 2.8 nM; in assay [3] (Table B1) it was 0.58 nM; in assay [4] (Table B1), 1.7 nM; in assay [5] (Table B1), 0.83 nM.

With `CNCc1ccc2cc1CCc1cncc(c1)Nc1ncc(Cl)c(n1)N2` [Example B334, 1-[6-Chloro-2,4,8,18,22-pentaazatetracyclo[14.3.1.1(3,7).1(9,13)]docosa-1(20),3(22),4,6,9(21),10,12,16,18-nonaen-12-yl]-N-methylmethanamine trihydrochloride], the “ALK % of inhibition” value in assay [1] (setting [10]) turned out to be 72%. Besides, the half-inhibitory concentration (IC50) is greater than 200 nM in assay [2] (Table B1), 199 nM in assay [3] (Table B1), greater than 200 nM in assay [4] (Table B1) and 44 nM in assay [5] (Table B1).

As for `CCC(=O)N1CCC(CC(=O)Nc2ccc3cc2CCc2cccc(c2)Nc2ncc(Cl)c(n2)N3)CC1` [Example A90, N-[6-Chloro-2,4,8,22-tetraazatetracyclo[14.3.1.1(3,7).1(9,13)]docosa-1(20), 3(22),4,6,9(21),10,12,16,18-nonaen-12-yl]-2-(1-propionylpiperidin-4-yl)acetamide trifluoroacetate], the “ALK % of inhibition” value in assay [1] (setting [6]) stood at 30%. Moreover, the IC50 was 68 nM in assay [2] (setting [7]), 5.4 nM in assay [3] (setting [8]), 4.9 nM in assay [4] and 4.9 nM in assay [5] (setting [9]).

Regarding `Clc1cnc2nc1Nc1cccc(c1)NCCCc1cccc(c1)N2` [Example D75, 6-Chloro-2,4,8,14,24-pentaazatetracyclo[16.3.1.1(3,7).1(9,13)]tetracosa-1(22),3(24),4,6,9(23),10,12,18,20-nonaene bis(trifluoroacetate)], the IC50 in assay [1] (Table D1, 90 μM ATP) stood at 1250 nM; in assay [2] (Table D1) it was 80 nM; in assay [3] (Table D1), 26 nM; in assay [4] (Table D1), 60 nM; in assay [5] (Table D1), 50 nM.

Regarding `O=S(=O)(Nc1cc2cc(c1)Nc1nc(ncc1Cl)Nc1cccc(c1)CC2)c1ccccc1` [Example B203, N-[6-Chloro-2,4,8,22-tetraazatetracyclo[14.3.1.1(3,7).1(9,13)]docosa-1(20),3(22),4,6,9(21),10,12,16,18-nonaen-11-yl]benzenesulfonamide trifluoroacetate], the IC50 in assay [1] (setting [12]) is greater than 10000 nM; in assay [2] (Table B1), 102 nM; in assay [3] (Table B1), 19 nM; in assay [4] (Table B1), 34 nM; in assay [5] (Table B1), 44 nM.

In the case of `N#Cc1cccc(NC(=O)Nc2ccc3cc2CCc2cccc(c2)Nc2ncc(Cl)c(n2)N3)c1` [Example B95, N-[6-Chloro-2,4,8,22-tetraazatetracyclo[14.3.1.1(3,7).1(9,13)]docosa-1(20), 3(22),4,6,9(21),10,12,16,18-nonaen-12-yl]-N′-(3-cyanophenyl)urea trifluoroacetate], the IC50 is greater than 1000 nM in assay [1] (setting [12]); 67 nM in assay [2] (Table B1); 4.1 nM in assay [3] (Table B1); 7.8 nM in assay [4] (Table B1); 2.1 nM in assay [5] (Table B1).

Take `O=C(CNC(=O)Nc1ccccc1)Nc1ccc2cc1CCc1cccc(c1)Nc1ncc(Cl)c(n1)N2` [Example A66, 2-[(Anilinocarbonyl)amino]-N-[6-chloro-2,4,8,22-tetraazatetracyclo[14.3.1.1(3,7).1(9,13)]docosa-1(20),3(22),4,6,9(21),10,12,16,18-nonaen-12-yl]acetamide trifluoroacetate]: the “ALK % of inhibition” value in assay [1] (setting [6]) is on record as 26%. For the same compound, the IC50 was found to be 6.2 nM in assay [2] (setting [7]), 3.1 nM in assay [3] (setting [8]), 21 nM in assay [4] and 9 nM in assay [5] (setting [9]).

Turning to `Cn1cncc1C(=O)Nc1ccc2cc1CCc1cccc(c1)Nc1ncc(Cl)c(n1)N2` [Example B51, N-[6-Chloro-2,4,8,22-tetraazatetracyclo[14.3.1.1(3,7).1(9,13)]docosa-1(20), 3(22),4,6,9(21),10,12,16,18-nonaen-12-yl]-1-methyl-1H-imidazole-5-carboxamide bis(trifluoroacetate)], the IC50 is 300 nM in assay [1] (setting [12]); 4.7 nM in assay [2] (Table B1); 0.91 nM in assay [3] (Table B1); 3.3 nM in assay [4] (Table B1); 2.7 nM in assay [5] (Table B1).

For `CN(Cc1ccc2cc1CCc1cncc(c1)Nc1ncc(Cl)c(n1)N2)C(=O)C1CCN(c2ncccn2)CC1` [Example B338, N-{[6-Chloro-2,4,8,18,22-pentaazatetracyclo[14.3.1.1(3,7).1(9,13)]docosa-1(20),3(22),4,6,9(21),10,12,16,18-nonaen-12-yl]methyl}-N-methyl-1-pyrimidin-2-ylpiperidine-4-carboxamide tris(trifluoroacetate)], the “ALK % of inhibition” value in assay [1] (setting [10]) is given as 21%. Besides, the IC50 in assay [2] (Table B1) is greater than 200 nM; in assay [3] (Table B1), 130 nM; in assay [4] (Table B1), greater than 200 nM; in assay [5] (Table B1) it was 70 nM.

As to `CN(C)c1ccc(C(=O)Nc2ccc3cc2CCc2cccc(c2)Nc2ncc(Cl)c(n2)N3)cc1` [Example B82, N-[6-Chloro-2,4,8,22-tetraazatetracyclo[14.3.1.1(3,7).1(9,13)]docosa-1(20), 3(22),4,6,9(21),10,12,16,18-nonaen-12-yl]-4-(dimethylamino)benzamide bis(trifluoroacetate)], in assay [1] (setting [11]), the “ALK % of inhibition” value is 39%. Also, the IC50 in assay [2] (Table B1) was found to be 44 nM; in assay [3] (Table B1), 7.6 nM; in assay [4] (Table B1), 14 nM; in assay [5] (Table B1) it was 7.9 nM.

In the case of `O=C(Nc1ccc2cc1CCc1cccc(c1)Nc1ncc(Cl)c(n1)N2)C1CCCCC1` [Example B63, N-[6-Chloro-2,4,8,22-tetraazatetracyclo[14.3.1.1(3,7).1(9,13)]docosa-1(20), 3(22),4,6,9(21),10,12,16,18-nonaen-12-yl]cyclohexanecarboxamide trifluoroacetate], the IC50 in assay [1] (setting [12]) was 600 nM; in assay [2] (Table B1), 56 nM; in assay [3] (Table B1), 12 nM; in assay [4] (Table B1), 34 nM; in assay [5] (Table B1), 18 nM.

On to `O=C(CCNC(=O)Nc1ccccc1)Nc1ccc2cc1CCc1cccc(c1)Nc1ncc(Cl)c(n1)N2` [Example A67, 3-[(Anilinocarbonyl)amino]-N-[6-chloro-2,4,8,22-tetraazatetracyclo[14.3.1.1(3,7).1(9,13)]docosa-1(20),3(22),4,6,9(21),10,12,16,18-nonaen-12-yl]propanamide trifluoroacetate], for which the “ALK % of inhibition” value in assay [1] (setting [6]) turned out to be 40%. Moreover, the half-maximal inhibitory concentration (IC50) in assay [2] (setting [7]) was found to be 7.7 nM; in assay [3] (setting [8]), 2.8 nM; in assay [4], 10 nM; in assay [5] (setting [9]) it was 8 nM.
